Results on 3 compounds are retold here after patent US8952020B2, “Optically active pyrazolylaminoquinazoline, and pharmaceutical compositions and methods of use thereof” (Ambit Biosciences Corp., priority 2010, dated 2015).

For data set [1], the target named is T1, CYP1A2 (Homo sapiens, UniProt P05177).
T1 sequence (P05177 1-516): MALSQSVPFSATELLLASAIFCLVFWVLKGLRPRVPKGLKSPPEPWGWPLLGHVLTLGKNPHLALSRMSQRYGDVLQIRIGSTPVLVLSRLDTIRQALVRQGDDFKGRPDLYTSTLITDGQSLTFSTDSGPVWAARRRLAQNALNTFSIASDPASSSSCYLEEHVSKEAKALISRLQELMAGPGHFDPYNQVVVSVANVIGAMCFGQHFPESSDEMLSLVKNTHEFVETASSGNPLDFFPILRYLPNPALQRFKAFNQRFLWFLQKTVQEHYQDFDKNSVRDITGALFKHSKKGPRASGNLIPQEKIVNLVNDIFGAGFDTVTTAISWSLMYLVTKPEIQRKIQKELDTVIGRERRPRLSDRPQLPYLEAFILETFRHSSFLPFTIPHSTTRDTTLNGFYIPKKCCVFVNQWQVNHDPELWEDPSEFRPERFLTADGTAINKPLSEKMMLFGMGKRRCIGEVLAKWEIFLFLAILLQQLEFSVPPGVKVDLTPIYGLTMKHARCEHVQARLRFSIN
Put plainly: CYP450 inhibition in human liver microsomes.

For data set [2] the following is noted: cynomolgus monkey, in vivo.
Procedure: (§1) Three male cynomolgus monkeys were fasted overnight and through four hours postdose. Two 100 μL aliquots of each dosing formulation were taken predose. Three monkeys were given a single gavage dose of a test compound at 10 mg/kg, followed by an approximately 10.0 mL tap water flush of the gavage tube. After a 1 week washout period, two of the three monkeys received a single IV bolus dose of a test compound at 1 mg/kg in a peripheral vein followed by approximate 1.0 mL saline flush.
Data set [3] deals with GM-CSFR/JAK2/STAT5 pathway in csTF-1 cells. Put plainly: csTF-1 cell-based reporter assay. The settings on record: Homo sapiens, GM-CSF at 2 ng/mL, beta-lactamase reporter, read-out: EC50, inhibition of GM-CSF stimulated reporter activity. As to the method:
After 16 hr incubation, cells were seeded at 2×10^5 cell/well in 50 μL volume, into Costar, clear bottom, 96-well assay plates. Serial dilutions of compounds were added to the plates with final DMSO concentration at 0.5% and GM-CSF at 2 ng/mL and the plates were then incubated at 30° C. and 5% CO2 for 4 hrs. The plates were brought to room temperature before adding Substrate Mixture according to manufacturer's protocol (Invitrogen, Catalog #K1085). The assay plates containing the substrate mixture were incubated in the dark at room temperature for 2 hrs. Blue and green fluorescence were measured with excitation at 409 nm and emission at 460 nm (for blue) and excitation at 409 nm and emission at 530 nm (for green) using Spectra Max Gemini EM.

Data set [4] addresses T2, CYP2B6 (Homo sapiens, UniProt P20813).
T2 sequence (P20813 1-491): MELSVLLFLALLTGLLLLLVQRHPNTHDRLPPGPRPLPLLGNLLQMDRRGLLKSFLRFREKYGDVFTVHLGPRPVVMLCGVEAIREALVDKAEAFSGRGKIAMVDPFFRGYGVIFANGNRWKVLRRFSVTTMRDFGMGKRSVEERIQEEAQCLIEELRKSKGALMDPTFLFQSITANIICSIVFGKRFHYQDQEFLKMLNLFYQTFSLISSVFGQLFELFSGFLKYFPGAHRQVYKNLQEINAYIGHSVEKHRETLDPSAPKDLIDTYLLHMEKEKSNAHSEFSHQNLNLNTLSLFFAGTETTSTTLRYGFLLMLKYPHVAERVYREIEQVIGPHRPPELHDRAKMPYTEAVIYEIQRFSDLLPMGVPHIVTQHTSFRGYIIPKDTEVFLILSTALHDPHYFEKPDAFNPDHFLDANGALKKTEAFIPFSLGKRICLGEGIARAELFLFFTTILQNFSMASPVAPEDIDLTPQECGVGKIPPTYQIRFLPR
Put plainly: CYP450 inhibition in human liver microsomes.

Data set [5] addresses T3, CYP2C8 (Homo sapiens, UniProt P10632).
T3 sequence (P10632 1-490): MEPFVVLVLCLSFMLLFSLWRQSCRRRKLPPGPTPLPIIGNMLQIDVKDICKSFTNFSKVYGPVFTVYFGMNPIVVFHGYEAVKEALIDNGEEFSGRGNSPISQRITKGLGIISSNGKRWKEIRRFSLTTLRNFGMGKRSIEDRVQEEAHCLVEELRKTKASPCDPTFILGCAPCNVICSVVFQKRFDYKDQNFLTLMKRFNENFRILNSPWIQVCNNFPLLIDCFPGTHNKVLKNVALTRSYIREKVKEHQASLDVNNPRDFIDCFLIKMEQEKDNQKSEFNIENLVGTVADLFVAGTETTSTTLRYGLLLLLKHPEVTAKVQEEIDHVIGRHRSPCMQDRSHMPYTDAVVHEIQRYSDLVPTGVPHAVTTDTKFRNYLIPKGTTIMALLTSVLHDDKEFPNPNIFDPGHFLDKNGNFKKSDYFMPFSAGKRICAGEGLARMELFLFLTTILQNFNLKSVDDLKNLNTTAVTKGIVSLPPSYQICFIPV
Put plainly: CYP450 inhibition in human liver microsomes.

Data set [6] is described as follows: in vivo. The settings on record: male, cynomolgus monkey.
Procedure: as §1
Data set [7] deals with CYP2D6 (Homo sapiens, UniProt P10635). Put plainly: CYP450 inhibition in human liver microsomes.
Data set [8] deals with T4, phosphodiesterase PDE5 (Homo sapiens, UniProt O76074).
T4 construct: from tissue; host or cells: human platelets
Put plainly: Inhibition of phosphodiesterase PDE5. It counts as biochemical. The settings on record: human platelets; read-out: IC50 against phosphodiesterase PDE5. Here is the method:
Acta 1976, 429, 485-497 and Nicholson et al., Trends Pharmacol. Sci. 1991, 12, 19-27. Human platelets were used in this assay. The final DMSO concentration in the assay was about 1%. The assay was pre-incubated at 25° C. for 15 min and then incubated at 25° C. for 20 min in an incubation buffer (50 mM Tris-HCl, pH 7.5, 5 mM MgCl2). The assay was quantitated by measuring the amount of [^3H]guanosine.

The target of data set [9] is T5, melatonin MT (Homo sapiens, UniProt P48039).
T5 construct: expressed in transfected cells; host or cells: CHO-K1
Put plainly: Melatonin MT GTPγS binding assay. The format is biochemical. The settings on record: GTPγS bound relative to 2-iodomelatonin response, CHO-K1 cells; read-out: IC50 against melatonin. Here is the method:
[…] CHO-K1 cells Chinese hamster ovary were used in this assay. The final DMSO concentration in the assay was about 0.4%. The assay mixture was incubated at 30° C. for 30 min in an incubation buffer (20 mM HEPES, pH 7.4, 100 mM NaCl, 10 mM MgCl2, 1 mM DTT, and 1 mM EDTA). The assay was quantitated by measuring the amount of [^35S]GTPγS bound relative to 2-iodomelatonin response.

Data set [10] in a line: Pharmacokinetic studies in monkeys. The settings on record: for AUCall / Cl-obs / Cmax: monkeys.
Procedure: as §1
Setting [11] is: Racemic administered IV 1 mg/kg, chiral analysis, label = analyte.
The mark [12] stands for this setting: Racemic administered PO 10 mg/kg, chiral analysis, label = analyte.
The mark [13] stands for this setting: compound administered IV 1 mg/kg, analyte = compound administered.
[14] abbreviates: compound administered PO 10 mg/kg, analyte = compound administered.

CYP2D6, sequence (P10635 whole entry): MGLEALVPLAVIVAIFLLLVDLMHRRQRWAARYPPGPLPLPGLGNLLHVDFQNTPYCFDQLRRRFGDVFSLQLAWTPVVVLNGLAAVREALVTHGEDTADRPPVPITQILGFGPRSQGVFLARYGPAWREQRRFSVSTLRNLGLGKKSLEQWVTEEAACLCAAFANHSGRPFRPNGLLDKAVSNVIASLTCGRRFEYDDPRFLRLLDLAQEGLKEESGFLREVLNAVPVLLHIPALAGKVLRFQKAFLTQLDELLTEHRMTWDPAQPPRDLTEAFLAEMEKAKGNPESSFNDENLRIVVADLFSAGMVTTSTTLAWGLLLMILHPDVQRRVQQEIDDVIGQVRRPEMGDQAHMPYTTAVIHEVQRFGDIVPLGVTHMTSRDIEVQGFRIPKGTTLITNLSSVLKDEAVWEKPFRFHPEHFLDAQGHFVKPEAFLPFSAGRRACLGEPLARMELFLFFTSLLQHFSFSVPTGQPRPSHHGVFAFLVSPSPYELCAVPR
T5 sequence (P48039 whole entry): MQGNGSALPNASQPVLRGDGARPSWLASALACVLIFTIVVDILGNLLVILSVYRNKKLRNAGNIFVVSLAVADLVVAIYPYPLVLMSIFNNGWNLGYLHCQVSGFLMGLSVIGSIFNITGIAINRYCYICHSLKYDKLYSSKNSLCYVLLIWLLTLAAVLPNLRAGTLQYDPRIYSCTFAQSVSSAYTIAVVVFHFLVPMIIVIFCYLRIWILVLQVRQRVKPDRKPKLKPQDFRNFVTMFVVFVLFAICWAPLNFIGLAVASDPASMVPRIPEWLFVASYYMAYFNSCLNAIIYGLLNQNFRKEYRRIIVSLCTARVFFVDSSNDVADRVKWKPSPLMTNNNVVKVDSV

On to `Cc1cc(Nc2nc([C@H](O)c3ccc(F)cc3)nc3ccccc23)n[nH]1` [(R)(−)], for which the IC50 was 1.7 µM in data set [1], more than 40 µM in [4], 26.9 µM in data set [5] and more than 40 µM in data set [7]. Further, the “share of the Cmax and AUC values determined for the racemic compound” value in [2] (male) is reported as “over 85%”. For the same compound, the EC50 in [3] was determined as 0.075 µM. Moreover, the bioavailability in data set [6] was more than 100%.
For `Cc1cc(Nc2nc([C@@H](O)c3ccc(F)cc3)nc3ccccc23)n[nH]1` [(S)(+)], the IC50 is less than 0.31 µM in data set [1], more than 40 µM in [4], 22.7 µM in data set [5] and more than 40 µM in data set [7]. In [2] (po), the “enantiomers present in plasma” value was “both enantiomers were present in plasma in almost equal proportions”. Further, in data set [3], the EC50 was 0.038 µM. The compound also had a bioavailability in [6] of 89%.
`Cc1cc(Nc2nc(C(O)c3ccc(F)cc3)nc3ccccc23)n[nH]1` (racemic) [Racemate]: the IC50 in [1] is less than 0.31 µM; in data set [8], 9.34 µM; in data set [9], 9.75 µM; in data set [4] it was more than 40 µM; in [5], 23.1 µM; in [7], more than 40 µM. In addition, in data set [3], the EC50 was determined as 0.07 µM. In data set [10] (male, cynomolgus monkey, in vivo, 10 mg/kg), this compound returned a bioavailability of more than 100%. Also, the AUCall in data set [10] (setting [11]) worked out at 2.19 µM·h; in data set [10] (setting [12]) it was 46.20 µM·h; in [10] (setting [13]), 2.19 µM·h; in [10] (setting [14]), 46.20 µM·h. Also, the Cl-obs in [10] (setting [11]) and in [10] (setting [13]) was 21.27 mL/min/kg throughout. The Cmax in data set [10] (setting [12]) and in data set [10] (setting [14]) was 5.76 µM throughout.
